The source of these data is patent US12644889B2, “Viral condensates and methods of use thereof” (Whitehead Institute for Biomedical Research, priority 2020, dated 2026).

The target in the assay is T1, SARS-CoV-2 nucleocapsid condensates (Severe acute respiratory syndrome coronavirus 2, UniProt P0DTC9).
T1 construct: Streptavidin tag (so in the source); made in house; host or cells: HEK cells
As to the kind of experiment: drug partitioning assay in nucleocapsid condensates (confocal fluorescence microscopy). Particulars: in vitro condensates not containing DNA; 10 uM nucleocapsid, 10% PEG, 1-50 uM drug.

With `O=C1c2c(O)ccc(O)c2C(=O)c2c(NCCNCCO)ccc(NCCNCCO)c21` [mitoxantrone], the “partitioning of drug into nucleocapsid condensates” value is “partitions into SARS-CoV-2 nucleocapsid condensates not containing DNA”.
